The target of the test is T1, Serotonin-(S-1A) (Rattus norvegicus, UniProt P19327).
T1 construct: Suspensionen aus Membranmaterial von Rattenhirn; from tissue; host or cells: rat brain membranes
T1 sequence (P19327 1-422): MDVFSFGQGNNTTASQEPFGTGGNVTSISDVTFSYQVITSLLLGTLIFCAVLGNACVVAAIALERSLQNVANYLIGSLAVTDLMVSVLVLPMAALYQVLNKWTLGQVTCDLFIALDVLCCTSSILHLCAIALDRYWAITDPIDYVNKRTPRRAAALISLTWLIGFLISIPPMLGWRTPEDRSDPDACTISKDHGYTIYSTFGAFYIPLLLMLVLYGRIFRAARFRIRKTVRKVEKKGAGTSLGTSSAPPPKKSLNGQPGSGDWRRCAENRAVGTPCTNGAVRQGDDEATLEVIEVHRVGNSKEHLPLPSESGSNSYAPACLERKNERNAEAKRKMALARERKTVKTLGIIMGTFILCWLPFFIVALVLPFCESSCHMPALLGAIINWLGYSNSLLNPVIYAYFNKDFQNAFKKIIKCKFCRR
The experiment in a line: 3H-serotonin binding assay on rat brain membrane suspensions. Details: species or system Ratten. An excerpt:
Die Serotonin-(S-1A)-Aufnahme, welche für Regulatoren mit Rezeptor-eigenschaften bei Serotonin-Agonisten indiziert ist, kann in-vitro wie folgt in einem Bindungsassay nachgewiesen werden: • Man stellt Suspensionen aus Membranmaterial von Rattenhirn her und inkubiert diese mit ^3H-Serotonin gemäss der Vorschrift von Martin und Sanders-Bush, Naunyn-Schmiederberg Arch. Pharmacol. 321, 165 (1982) und Middlemiss und Fozard Eur. J. Pharmacol., 90, 151 (1983).
In diesem Bindungsassay werden aliquote Teile von […] Zellsuspensionen zu abgepufferten ^3H-Serotonin-Lösungen mit und ohne Wirkstoff gegeben. Die Konzentration an ^3H-Serotonin ist 2 nM und man wertet die zu testenden Wirkstoffe über einen weiten Konzentrationsbereich aus. Die IC50-Werte (Konzentrationen an Wirkstoff, welche zur Hemmung von 50 % 2 nM ^3H-Serotonin nötig sind) werden graphisch bestimmt.

Structures can show the parent of a compound that is named as a salt. Where two headings read alike, the source gives them in different places.

For `CCCN(CCC)C1CSc2cccc(OCC)c2C1` (centres unmarked) [3,4-Dihydro-N,N-dipropyl-5-ethoxy-2H-[1]-benzothiopyran-3-amin-hydrochlorid], the IC50 (commonly the concentration at which inhibition is half-maximal) (concentration needed to inhibit 50 % of 2 nM 3H-Serotonin, rat brain membranes, determined graphically, read-out: IC50-Werte) is approximately 21 nM.

On to `CCCN(CCC)C1COc2cccc(OCC)c2C1` (centres unmarked) [5-Aethoxy-N,N-dipropyl-3,4-dihydro-2H-[1]-benzopyran-3-amin-hydrochlorid], for which the IC50 is approximately 40 nM.

Source of the values: patent EP0222996A2, “3-Amino-dihydro(1)benzopyrane and benzothiopyrane” (CIBA-GEIGY AG, priority 1985, dated 1987).
